Experimental findings from ChEMBL document CHEMBL1255545, “Synthesis and evaluation of 1,2,4-triazolo[1,5-c]pyrimidine derivatives as A2A receptor-selective antagonists” (Bioorg Med Chem Lett, 2010) are described below.

Type in all cases: cell-based
For experiment [1], the target named is T1, Adenosine receptor A3 (Homo sapiens) (UniProt P0DMS8).
T1 sequence (whole entry): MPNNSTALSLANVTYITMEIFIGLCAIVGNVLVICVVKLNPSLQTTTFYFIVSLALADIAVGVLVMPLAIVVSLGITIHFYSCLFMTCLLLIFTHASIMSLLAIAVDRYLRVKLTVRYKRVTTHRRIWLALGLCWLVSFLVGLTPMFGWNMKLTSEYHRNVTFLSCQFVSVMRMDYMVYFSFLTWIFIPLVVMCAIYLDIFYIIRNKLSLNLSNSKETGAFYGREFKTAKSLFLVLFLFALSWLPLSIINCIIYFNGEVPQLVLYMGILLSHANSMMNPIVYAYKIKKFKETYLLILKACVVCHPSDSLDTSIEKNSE
Nature of the experiment: Displacement of [125I]I-AB-MECA from human adenosine A3 receptor expressed in CHO cells at 10 uM.

The target of experiment [2] is T2, Adenosine receptor A1 (Homo sapiens) (UniProt P30542).
T2 sequence (whole entry): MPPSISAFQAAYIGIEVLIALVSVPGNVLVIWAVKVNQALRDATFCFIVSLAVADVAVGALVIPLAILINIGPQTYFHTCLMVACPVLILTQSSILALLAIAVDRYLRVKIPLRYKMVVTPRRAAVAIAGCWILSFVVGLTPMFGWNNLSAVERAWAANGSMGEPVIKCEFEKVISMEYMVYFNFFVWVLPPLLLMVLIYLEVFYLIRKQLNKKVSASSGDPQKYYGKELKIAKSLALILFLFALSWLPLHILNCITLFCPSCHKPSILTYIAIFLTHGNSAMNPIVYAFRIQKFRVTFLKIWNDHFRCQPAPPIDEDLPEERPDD
Nature of the experiment: Displacement of [3H]CCPA from human adenosine A1 receptor expressed in CHO cells at 10 uM. A general note: In a radioligand displacement assay an active substance lowers the binding of a labelled ligand.

Experiment [3] deals with Adenosine receptor A2a (Homo sapiens, UniProt P29274). In words: Displacement of [3H]CGS21680 from human adenosine A2A receptor expressed in HEK293 cells at 10 uM.
In experiment [4] the target is T3, Adenosine receptor A3 (Homo sapiens, UniProt P0DMS8).
T3 sequence (P0DMS8 whole entry): T1 sequence (whole entry)
In words: Displacement of [125I]I-AB-MECA from human adenosine A3 receptor expressed in CHO cells.

Adenosine receptor A2a, sequence (P29274 whole entry): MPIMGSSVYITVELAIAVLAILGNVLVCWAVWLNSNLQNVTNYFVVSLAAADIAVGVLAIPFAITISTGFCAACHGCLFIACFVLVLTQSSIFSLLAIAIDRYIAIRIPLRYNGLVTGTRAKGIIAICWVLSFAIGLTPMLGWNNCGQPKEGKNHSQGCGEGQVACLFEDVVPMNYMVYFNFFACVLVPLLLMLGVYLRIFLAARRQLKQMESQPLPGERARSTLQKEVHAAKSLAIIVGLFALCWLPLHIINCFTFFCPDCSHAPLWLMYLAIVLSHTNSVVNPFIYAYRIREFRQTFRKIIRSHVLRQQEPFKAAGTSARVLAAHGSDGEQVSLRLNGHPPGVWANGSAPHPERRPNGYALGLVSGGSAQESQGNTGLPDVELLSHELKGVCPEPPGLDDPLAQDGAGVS

As for `CC(C)Oc1ccc(CCCn2ncc3c2nc(N)n2nc(-c4ccco4)nc32)cc1`, the inhibition – broadly, the drop in the measured response relative to a control, in per cent – turned out to be 72.8% in experiment [1] and 35% in experiment [2]. The Ki (in general, a dissociation constant, usually derived from enzyme kinetics or from competition with a known ligand) in experiment [3] turned out to be 13.3 nM.
`CCOc1ccc(CCCn2ncc3c2nc(N)n2nc(-c4ccco4)nc32)cc1` came in with an inhibition in experiment [2] of 4.8%. The Ki in experiment [4] is 4940 nM; in experiment [3] it was 43.9 nM.
Take `Nc1nc2c(cnn2CCCc2ccc(O)cc2)c2nc(-c3ccco3)nn12`: the inhibition in experiment [1] came to 34.2%; in experiment [2], 44.3%. This compound also showed an inhibitory constant (Ki) in experiment [3] of 48.3 nM.
Turning to `CCC(C)Oc1ccc(CCCn2ncc3c2nc(N)n2nc(-c4ccco4)nc32)cc1` (stereo not drawn), the values for the inhibition in experiment [1] and in experiment [2] were 41.9% and 16.8%, respectively. In experiment [3], the inhibition constant Ki was determined as 22.1 nM.
On the same counts, the results for `Nc1nc2c(cnn2CCCc2ccc(OCCF)cc2)c2nc(-c3ccco3)nn12` are 59.6%, 42.7% and 12.4 nM.
As to `Nc1nc2c(cnn2CCCc2ccc(O/C=C/c3ccccc3)cc2)c2nc(-c3ccco3)nn12`, the inhibition in experiment [1] was determined as 17.8%; in experiment [2] it was 7.3%. Besides, the Ki in experiment [3] amounted to 308 nM.
On the same counts, the results for `Nc1nc2c(cnn2CCCc2ccc(OCCO)cc2)c2nc(-c3ccco3)nn12` are 57.8%, 47.9% and 23.9 nM.
On the same counts, the results for `C=CCCOc1ccc(CCCn2ncc3c2nc(N)n2nc(-c4ccco4)nc32)cc1` are 44.8%, 25.5% and 14.4 nM.
On to `COc1ccc(CCCn2ncc3c2nc(N)n2nc(-c4ccco4)nc32)cc1`, for which the inhibition in experiment [1] turned out to be 67.4%; in experiment [2], 38.4%.
With `CS(=O)(=O)OCCOc1ccc(CCCn2ncc3c2nc(N)n2nc(-c4ccco4)nc32)cc1`, the figures for the inhibition in experiment [1] and in experiment [2] were 62.4% and 27.8%, respectively. The compound further displayed a Ki in experiment [3] of 45.7 nM.
On the same counts, the results for `Nc1nc2c(cnn2CCCc2ccc(OCCc3ccccc3)cc2)c2nc(-c3ccco3)nn12` are 18.2%, 6.9% and 78.9 nM.
On the same counts, the results for `C=CCOc1ccc(CCCn2ncc3c2nc(N)n2nc(-c4ccco4)nc32)cc1` are 62.5%, 32.8% and 9 nM.
On the same counts, the results for `CCCOc1ccc(CCCn2ncc3c2nc(N)n2nc(-c4ccco4)nc32)cc1` are 36.5%, 17.9% and 11.7 nM.
